Source: patent US20030133987A1, “Drug nanoparticles from template emulsions” (priority 2002, published 2003)

Experiment: In-vitro dissolution, standard protocol according to USP 24 monographs
Assay type: physicochemical
Conditions: HPLC or UV/VIS detection, control (drug as received) in parenthesis
Method: The dissolution progress was measured after 5, 10, 15, and 60 minutes using either High Pressure Liquid Chromatography (HPLC) or UV/VIS detection as the analytical tools. […] For comparison, the corresponding data for the controls are given in parenthesis.

Which results are given for `CC(=O)N1CCN(c2ccc(OCC3COC(Cn4ccnc4)(c4ccc(Cl)cc4Cl)O3)cc2)CC1` (stereo not shown) [Ketoconazole, ketoconazole]?
percent of dissolved sample, 5 min (5 min): 31%; percent of dissolved sample, 10 min (10 min): 41%; percent of dissolved sample, 15 min (15 min): 48%; percent of dissolved sample, 60 min (60 min): (100%)
